In patent publication US9708314B2, “Heterocyclic amide compound” (NISSAN CHEMICAL INDUSTRIES, LTD., priority 2013, dated 2017):

Assays:
Assay type in all cases: in vivo
Cyperus difformis = test: Test Example 3: herbicidal effect by application to foliage (Wagner pot, water depth 0.1-0.5 cm); settings: Nineteenth Table; application to foliage; application herbicide amount 320 g/ha
How it was run: (§1)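 Post-emergence foliar application at a stated g/ha rate to plants grown 14 days from seed in alluvial soil, greenhouse 25–30 °C. Visual score after 3 weeks: 0 (≤5% effect) through 5 (≥90%).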

[1] = test system: Echinochloa crus-galli var. crus-galli; test: as above; settings: Nineteenth Table; application to foliage; application herbicide amount 320 g/ha
How it was run: as §1

Leptochloa chinensis = test: as above; settings: Nineteenth Table; application to foliage; application herbicide amount 320 g/ha
How it was run: as §1

[2] = test system: directly sowed Oryza sativa; test: Test Example 3: effect on crop by application to foliage (Wagner pot, water depth 0.1-0.5 cm); settings: Nineteenth Table; application to foliage; application herbicide amount 320 g/ha
How it was run: as §1

Abutilon theophrasti = test: Test Example 4: herbicidal effect by application to foliage (diluvial soil, plastic box); settings: Application herbicide amount 320 g/ha; foliage application
How it was run: (§2)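 Seeds sown in sterilized diluvial soil, covered ~1.5 cm, grown 14 days in greenhouse at 25° C. to 30° C. Emulsion formulation diluted in water to set rate (g/ha) and sprayed onto stems and leaves. Effect scored visually 3 weeks later on 0–5 scale (5 = ≥90% herbicidal ratio, 0 = ≤5%).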

Alopecurus myosuroides = test: as above; settings: Application herbicide amount 320 g/ha; foliage application
How it was run: as §2

Amaranthus retroflexus = test: as above; settings: Application herbicide amount 320 g/ha; foliage application
How it was run: as §2

Apera spica-venti. = test: as above; settings: Application herbicide amount 320 g/ha; foliage application
How it was run: as §2

Avena fatua = test: as above; settings: Application herbicide amount 320 g/ha; foliage application
How it was run: as §2

Chenopodium album = test: as above; settings: Application herbicide amount 320 g/ha; foliage application
How it was run: as §2

Digitaria ciliaris = test: as above; settings: Application herbicide amount 320 g/ha; foliage application
How it was run: as §2

[3] = test system: Echinochloa crus-galli var. crus-galli; test: as above; settings: Application herbicide amount 320 g/ha; foliage application
How it was run: as §2

Galium spurium = test: as above; settings: Application herbicide amount 320 g/ha; foliage application
How it was run: as §2

Lolium multiflorum Lam. = test: as above; settings: Application herbicide amount 320 g/ha; foliage application
How it was run: as §2

Setaria viridis = test: as above; settings: Application herbicide amount 320 g/ha; foliage application
How it was run: as §2

Stellaria media = test: as above; settings: Application herbicide amount 320 g/ha; foliage application
How it was run: as §2

Veronica persica = test: as above; settings: Application herbicide amount 320 g/ha; foliage application
How it was run: as §2

[4] = test system: Beta vulgaris ssp. vulgaris; test: Test Example 4: effect on crop by application to foliage (diluvial soil, plastic box); settings: Application herbicide amount 320 g/ha; foliage application
How it was run: as §2

Brassica campestris L. = test: as above; settings: Application herbicide amount 320 g/ha; foliage application
How it was run: as §2

Glycine max = test: as above; settings: Application herbicide amount 320 g/ha; foliage application
How it was run: as §2

Triticum aestivum = test: as above; settings: Application herbicide amount 320 g/ha; foliage application
How it was run: as §2

Zea mays = test: as above; settings: Application herbicide amount 320 g/ha; foliage application
How it was run: as §2

SMILES | E (herbicidal effect grade) (Cyperus difformis) | H (herbicidal effect grade) [1] | D (herbicidal effect grade) (Leptochloa chinensis) | b (effect on crop grade) [2] | M (Abutilon theophrasti) herbicidal effect grade (Abutilon theophrasti) | J (Alopecurus myosuroides) herbicidal effect grade (Alopecurus myosuroides) | N (Amaranthus retroflexus) herbicidal effect grade (Amaranthus retroflexus) | L (Apera spica-venti.) herbicidal effect grade (Apera spica-venti.) | I (Avena fatua) herbicidal effect grade (Avena fatua) | O (Chenopodium album) herbicidal effect grade (Chenopodium album) | F (Digitaria ciliaris) herbicidal effect grade (Digitaria ciliaris) | H (Echinochloa crus-galli var. crus-galli) herbicidal effect grade [3] | Q (Galium spurium) herbicidal effect grade (Galium spurium) | K (Lolium multiflorum Lam.) herbicidal effect grade (Lolium multiflorum Lam.) | G (Setaria viridis) herbicidal effect grade (Setaria viridis) | P (Stellaria media) herbicidal effect grade (Stellaria media) | R (Veronica persica) herbicidal effect grade (Veronica persica) | f (Beta vulgaris ssp. vulgaris) effect on crop grade [4] | g (Brassica campestris L.) effect on crop grade (Brassica campestris L.) | d (Glycine max) effect on crop grade (Glycine max) | also measured
CC(=O)CSc1nnc2c(C(=O)Nc3nnc(C)o3)ccc(C(F)(F)F)n12 [1-125] | 3 (Herbicidal ratio of 40% or more and less than 70%) | 5 (Herbicidal ratio of 90% or more (almost completely withered)) | 4 (Herbicidal ratio of 70% or more and less than 90%) | 1 (Herbicidal ratio of 5% or more and less than 20%) | 3 (Herbicidal ratio of 40% or more and less than 70%) | 0 (Herbicidal ratio of 5% or less (almost no effect)) | 3 (Herbicidal ratio of 40% or more and less than 70%) | 0 (Herbicidal ratio of 5% or less (almost no effect)) | 1 (Herbicidal ratio of 5% or more and less than 20%) | 5 (Herbicidal ratio of 90% or more (almost completely withered)) | 4 (Herbicidal ratio of 70% or more and less than 90%) | 4 (Herbicidal ratio of 70% or more and less than 90%) | 0 (Herbicidal ratio of 5% or less (almost no effect)) | 0 (Herbicidal ratio of 5% or less (almost no effect)) | 1 (Herbicidal ratio of 5% or more and less than 20%) | 4 (Herbicidal ratio of 70% or more and less than 90%) | 0 (Herbicidal ratio of 5% or less (almost no effect)) | 5 (Herbicidal ratio of 90% or more (almost completely withered)) | 3 (Herbicidal ratio of 40% or more and less than 70%) | 3 (Herbicidal ratio of 40% or more and less than 70%) | e (Triticum aestivum) effect on crop grade (Triticum aestivum): 1 (Herbicidal ratio of 5% or more and less than 20%); c (Zea mays) effect on crop grade (Zea mays): 2 (Herbicidal ratio of 20% or more and less than 40%)
Cc1nnc(NC(=O)c2ccc(C(F)(F)F)n3c(SCC4OCCO4)nnc23)o1 [1-126] | 4 (Herbicidal ratio of 70% or more and less than 90%) | 4 (Herbicidal ratio of 70% or more and less than 90%) | 4 (Herbicidal ratio of 70% or more and less than 90%) | 0 (Herbicidal ratio of 5% or less (almost no effect)) | 3 (Herbicidal ratio of 40% or more and less than 70%) | 0 (Herbicidal ratio of 5% or less (almost no effect)) | 3 (Herbicidal ratio of 40% or more and less than 70%) | 1 (Herbicidal ratio of 5% or more and less than 20%) | 0 (Herbicidal ratio of 5% or less (almost no effect)) | 5 (Herbicidal ratio of 90% or more (almost completely withered)) | 4 (Herbicidal ratio of 70% or more and less than 90%) | 5 (Herbicidal ratio of 90% or more (almost completely withered)) | 1 (Herbicidal ratio of 5% or more and less than 20%) | 0 (Herbicidal ratio of 5% or less (almost no effect)) | 3 (Herbicidal ratio of 40% or more and less than 70%) | 5 (Herbicidal ratio of 90% or more (almost completely withered)) | 4 (Herbicidal ratio of 70% or more and less than 90%) | 5 (Herbicidal ratio of 90% or more (almost completely withered)) | 3 (Herbicidal ratio of 40% or more and less than 70%) | 2 (Herbicidal ratio of 20% or more and less than 40%) | e (Triticum aestivum) effect on crop grade (Triticum aestivum): 0 (Herbicidal ratio of 5% or less (almost no effect)); c (Zea mays) effect on crop grade (Zea mays): 1 (Herbicidal ratio of 5% or more and less than 20%)
CSCCNc1nnc2c(C(=O)Nc3nnc(C)o3)ccc(C(F)(F)F)n12 [1-130] | 2 (Herbicidal ratio of 20% or more and less than 40%) | 5 (Herbicidal ratio of 90% or more (almost completely withered)) | 4 (Herbicidal ratio of 70% or more and less than 90%) | 2 (Herbicidal ratio of 20% or more and less than 40%) | 3 (Herbicidal ratio of 40% or more and less than 70%) | 1 (Herbicidal ratio of 5% or more and less than 20%) | 3 (Herbicidal ratio of 40% or more and less than 70%) | 1 (Herbicidal ratio of 5% or more and less than 20%) | 1 (Herbicidal ratio of 5% or more and less than 20%) | 5 (Herbicidal ratio of 90% or more (almost completely withered)) | 4 (Herbicidal ratio of 70% or more and less than 90%) | 5 (Herbicidal ratio of 90% or more (almost completely withered)) | 4 (Herbicidal ratio of 70% or more and less than 90%) | 1 (Herbicidal ratio of 5% or more and less than 20%) | 4 (Herbicidal ratio of 70% or more and less than 90%) | 3 (Herbicidal ratio of 40% or more and less than 70%) | 3 (Herbicidal ratio of 40% or more and less than 70%) | 5 (Herbicidal ratio of 90% or more (almost completely withered)) | 4 (Herbicidal ratio of 70% or more and less than 90%) | 3 (Herbicidal ratio of 40% or more and less than 70%) | e (Triticum aestivum) effect on crop grade (Triticum aestivum): 0 (Herbicidal ratio of 5% or less (almost no effect)); c (Zea mays) effect on crop grade (Zea mays): 0 (Herbicidal ratio of 5% or less (almost no effect))
Cc1nnc(NC(=O)c2ccc(C(F)(F)F)n3c(NCC(F)(F)F)nnc23)o1 [1-131] | 3 (Herbicidal ratio of 40% or more and less than 70%) | 4 (Herbicidal ratio of 70% or more and less than 90%) | 4 (Herbicidal ratio of 70% or more and less than 90%) | 2 (Herbicidal ratio of 20% or more and less than 40%) | 3 (Herbicidal ratio of 40% or more and less than 70%) | 0 (Herbicidal ratio of 5% or less (almost no effect)) | 3 (Herbicidal ratio of 40% or more and less than 70%) | 0 (Herbicidal ratio of 5% or less (almost no effect)) | 0 (Herbicidal ratio of 5% or less (almost no effect)) | 5 (Herbicidal ratio of 90% or more (almost completely withered)) | 4 (Herbicidal ratio of 70% or more and less than 90%) | 4 (Herbicidal ratio of 70% or more and less than 90%) | 0 (Herbicidal ratio of 5% or less (almost no effect)) | 0 (Herbicidal ratio of 5% or less (almost no effect)) | 3 (Herbicidal ratio of 40% or more and less than 70%) | 3 (Herbicidal ratio of 40% or more and less than 70%) | 3 (Herbicidal ratio of 40% or more and less than 70%) | 3 (Herbicidal ratio of 40% or more and less than 70%) | 0 (Herbicidal ratio of 5% or less (almost no effect)) | 3 (Herbicidal ratio of 40% or more and less than 70%) | e (Triticum aestivum) effect on crop grade (Triticum aestivum): 0 (Herbicidal ratio of 5% or less (almost no effect)); c (Zea mays) effect on crop grade (Zea mays): 0 (Herbicidal ratio of 5% or less (almost no effect))
